Test results from PubChem BioAssay AID1996.
In brackets after ≈: the same amount, converted by molar mass.

Conditions: buffer; pH 7.4; 200.0 µM

Row | Structure (SMILES) | solubility kinetic [µg/mL]
1 | O=S(=O)(Nc1cccc(-c2nc3cccnc3s2)c1)c1cccs1 | 0.9 (≈ 2.41 µM)
2 | CCC(=O)c1ccc(Oc2nc3c(c(=O)n(C)c(=O)n3C)n2CC)cc1 | 19.6 (≈ 55 µM)
3 | Cc1cc(C)cc(OCCN2CCOCC2)c1 | 22.5 (≈ 95.6 µM)
4 | O=C(COC(=O)c1cncc(Br)c1)NCc1cccs1 | 40.6 (≈ 114 µM)
5 | O=C(COC(=O)c1cccc(OC(F)F)c1)NCC1CCCO1 (stereo not given) | > 49.4
6 | CCOc1ccc(S(=O)(=O)Nc2nccs2)cc1 | > 42.7
7 | Cc1ccc(NC(=O)c2c(C)noc2C)cc1S(=O)(=O)N1CCOCC1 | > 56.9
8 | c1ccc(-c2ccc(-c3ccncn3)cc2)cc1 | < 0.2
9 | COc1c(S(=O)(=O)Nc2cccnc2)ccc(Cl)c1Cl | 30.8 (≈ 92.4 µM)
10 | O=C(O)c1cc(S(=O)(=O)NCCOc2ccccc2)ccc1Cl | > 53.4
11 | NC(=O)C1CCN(Cc2nc(-c3cccs3)no2)CC1 | > 43.9
12 | Cc1ccc(Oc2ncnc(N)c2[N+](=O)[O-])cc1 | 12.3 (≈ 50 µM)
13 | Cc1cc(C)cc(OCC(=O)OCC(=O)Nc2cc(S(=O)(=O)N3CCOCC3)ccc2Cl)c1 | 41.6 (≈ 83.7 µM)
14 | Cc1cc2oc(=O)cc(CN3CCOCC3)c2c(C)c1Cl | 0.9 (≈ 2.92 µM)
15 | CCOc1cccc(C(=O)NC2=NCCS2)c1 | 26.1 (≈ 104 µM)
16 | Nc1nc(Cl)nc2c1ncn2[C@@H]1O[C@H](CO)[C@@H](O)[C@H]1O | > 45.3
17 | C/C(=N\O)c1ccn(S(=O)(=O)c2ccc(Cl)cc2)c1 | 8.4 (≈ 28.1 µM)
18 | COC(=O)c1nc2ccccn2c1F | > 29.1
19 | C=CCn1c(=S)sc2c(=O)[nH]c(C)nc21 | > 35.9
20 | CC(=O)NN1C(=O)c2ccccc2NC1c1ccc([N+](=O)[O-])o1 (stereo not given) | > 47.4
21 | COc1cccc(N2CC(O)Cn3c2nc2c3c(=O)[nH]c(=O)n2C)c1 (stereo not given) | > 51.5
22 | COC(=O)c1ccc(/C=C(\C#N)c2ccccn2)cc1 | 1.8 (≈ 6.81 µM)
23 | CCn1c(=O)c([N+](=O)[O-])c(N2CCSCC2)c2ccccc21 | 14.8 (≈ 46.3 µM)
24 | CC(C)(C)c1ccc(S(=O)(=O)N2CCN(CC(O)CN3CCOCC3)CC2)cc1 (stereo not given) | > 63.8
25 | CCOc1ccccc1N1CC(C(=O)N(CC)C2CCS(=O)(=O)C2)CC1=O (stereo not given) | > 59.2
26 | c1ccc(CN2CCc3nc4ccccc4cc3C2)cc1 | 33.2 (≈ 121 µM)
27 | c1csc(-c2noc(CN3CCN4CCCC4C3)n2)c1 (stereo not given) | > 43.6
28 | O=C(c1ccccc1)C1CCN(C(=O)c2ccco2)CC1 | 41.6 (≈ 147 µM)
29 | CN(C)Cc1cccc([N+](=O)[O-])c1O | > 29.4

Now from value to molecule:

Row | solubility kinetic [µg/mL] | Structure (SMILES)
30 | > 42.5 | Cc1ccccc1C(=O)OCC(=O)N(C)c1ccccc1
31 | 45.4 (≈ 138 µM) | O=C(O)COCC(=O)Nc1ccc(OCCc2ccccc2)cc1
32 | > 52.5 | Cn1nc(-c2ccc(Cl)cc2)cc1NC(=O)CC(C)(C)CC(=O)O
33 | 44 (≈ 134 µM) | CCc1ccccc1NC(=S)N(CCc1ccncc1)C(C)C
34 | 13.4 (≈ 58.5 µM) | Cc1cccc(Nc2ccc([N+](=O)[O-])cn2)c1
35 | 20.2 (≈ 54.4 µM) | CCOc1ccc2nc(SCC(=O)NCc3ccc(OC)cc3)[nH]c2c1
36 | 1 (≈ 3.66 µM) | Cc1ccc(C(=O)/C=C/c2ccc3ncccc3c2)cc1
37 | > 51.2 | O=C1OCC2=C1C(c1ccc(F)cc1)CC(=O)N2c1ccc(F)cc1 (stereo not given)
38 | > 45 | Cc1nn(C)c(C)c1NS(=O)(=O)c1ccccc1Cl
39 | 3.3 (≈ 11.4 µM) | CCn1c(/C=C/c2ccccc2C)nc2ccccc2c1=O
40 | 4.4 (≈ 14.6 µM) | Cc1ccc(CNC(=O)COC(=O)c2cc(C)oc2C)cc1
41 | > 46.1 | CCOc1ccc(C(=O)CCC(=O)NC(C)C(=O)OC)cc1 (stereo not given)
42 | 1 (≈ 2.97 µM) | O=C(NCc1ccc2c(c1)CCO2)Nc1cccc(C(F)(F)F)c1
43 | 1.2 (≈ 4.7 µM) | C/C=C/C(=O)N1c2ccc(C)cc2C(C)=CC1(C)C
44 | 6.2 (≈ 19.6 µM) | Cc1ccc(C(C)NC(=S)NCc2ccc(F)cc2)cc1C (stereo not given)
45 | 1.8 (≈ 4.51 µM) | COC(=O)c1cc(NC(=S)NC(=O)c2ccccc2)ccc1N1CCOCC1

Row | solubility kinetic [µg/mL] | Structure (SMILES)
46 | 25 (≈ 69.4 µM) | COc1cccc(OC)c1C(=O)Nc1sc2c(c1C(N)=O)CCCC2
47 | 7.6 (≈ 23.5 µM) | Cc1noc(C)c1COc1ccc(C(=O)Nc2ccccn2)cc1
48 | 2.5 (≈ 7.46 µM) | COc1ccc(-c2nc3ncccc3o2)cc1NC(=O)c1ccco1
49 | < 0.3 | COc1ccc2nc(NC(=O)c3cccs3)sc2c1
50 | > 45 | O=C(CCNC(=O)c1ccccc1)NCc1ccccc1F
51 | > 40.5 | Cc1cc(C)nc(NC(=O)NC(=O)c2ccccc2)n1
52 | < 0.7 | COC(=O)c1sccc1NC(=O)COc1cccc(C)c1
53 | 43.1 (≈ 142 µM) | OCCN(Cc1ccccc1)C(=S)Nc1ccc(F)cc1
54 | 45.6 (≈ 139 µM) | COc1cc2c(cc1OC)C(c1ccc([N+](=O)[O-])cc1)NC(=O)C2 (stereo not given)
55 | 6.1 (≈ 21.1 µM) | CN(C)c1ccc(C2Nc3cccc4cccc(c34)N2)cc1
56 | 3.9 (≈ 11.5 µM) | Cc1ccc(NC(=O)Cn2cnc3cc([N+](=O)[O-])ccc3c2=O)cc1
57 | 53.5 (≈ 150 µM) | COCCNC(=O)c1ccccc1NC(=O)c1cccc([N+](=O)[O-])c1C
58 | < 0.7 | Cc1cc(S(=O)(=O)N2CCc3ccccc3C2)ccc1F
59 | 46.1 (≈ 128 µM) | O=S(=O)(Nc1ccc(OC(F)(F)F)cc1)c1cccc2nonc12
60 | > 43.1 | Cc1cc(NC(=O)C(C)C)ncc1NC(=O)c1ccco1
